This note sets out measurements from patent US8163756B2 (priority 2004, dated 2012).

Each structure is given as a SMILES string. pIC50: −log10 of the molar value.

For one assay, the target named is B-Raf(V599E) kinase (Homo sapiens, UniProt P15056, V600E). Nature of the assay: B-Raf(V599E) kinase assay B1 (construct 1, MEK1 substrate, coupled spectrophotometric). In kind it is biochemical.
Sequence of B-Raf(V599E) kinase (P15056 with tags, fused parts or gaps V600E): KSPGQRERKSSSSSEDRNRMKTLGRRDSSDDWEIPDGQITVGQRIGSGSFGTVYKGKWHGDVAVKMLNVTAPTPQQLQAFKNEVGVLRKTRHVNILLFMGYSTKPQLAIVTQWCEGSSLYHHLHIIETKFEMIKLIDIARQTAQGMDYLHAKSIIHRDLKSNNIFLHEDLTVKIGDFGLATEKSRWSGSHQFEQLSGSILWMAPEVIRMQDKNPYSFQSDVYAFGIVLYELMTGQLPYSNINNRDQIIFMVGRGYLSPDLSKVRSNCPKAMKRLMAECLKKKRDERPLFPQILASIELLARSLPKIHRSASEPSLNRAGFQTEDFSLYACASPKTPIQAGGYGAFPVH
Settings: not given
Here is the method: The test compounds were incubated with the reaction mixtureat 30° C. for 2 h. […] The reaction rate was calculated using the […] time frame. […] IC50 values were calculated from a series of percent inhibition values determined at a range of inhibitor concentrations using software routines as implemented in the GraphPad Prism software package.
`CC(C)(C)c1cc(NC(=O)Nc2cc(F)c(F)cc2F)n(-c2cccc(CC(=O)O)c2)n1` [Example 370, 2-(3-(3-t-butyl-5-(3-(2,4,5-trifluorophenyl)-ureido)-1H-pyrazol-1-yl)phenyl)acetic acid] showed a pIC50 of 8.10.
As for `CC(C)(C)c1cc(NC(=O)Nc2cccc(F)c2F)n(-c2ccc3c(c2)CCC(=O)N3)n1` [Example 320, 1-(3-t-butyl-1-(2-oxo-1,2,3,4-tetrahydro-quinolin-6-yl)-1H-pyrazol-5-yl)-3-(2,3-difluorophenyl)urea], the pIC50 is 8.34.
Same read-out and setting: for `CC(C)(C)c1cc(NC(=O)Nc2cccc(F)c2F)n(-c2ccc3c(c2)CCN(S(C)(=O)=O)C3)n1` [Example 328, 1-(3-t-butyl-1-(2-(methylsulfonyl)-1,2,3,4-tetrahydroisoquinolin-6-yl)-1H-pyrazol-5-yl)-3-(2,3-difluorophenyl)urea] the value was 7.60.
In turn, `COc1cccc(-n2nc(C(C)(C)C)cc2NC(=O)Nc2cccc(Cl)c2)c1` [Example 231, 1-(3-t-butyl-1-(3-methoxyphenyl)-1H-pyrazol-5-yl)-3-(3-chlorophenyl)urea] showed a pIC50 of 7.57.
The same measure, in the same setting: for `CC(C)(C)c1cc(NC(=O)Nc2cccc(F)c2F)n(-c2ccc3[nH]c(=O)ccc3c2)n1` [Example 329, 1-(3-t-butyl-1-(2-oxo-1,2-dihydroquinolin-6-yl)-1H-pyrazol-5-yl)-3-(2,3-difluorophenyl)urea] the value was 8.38.
Take `CCOC(=O)Cc1cc(-n2nc(C(C)(C)C)cc2NC(=O)Nc2ccc(Cl)cc2)cc2ccccc12` [Example 298, (3-{3-t-butyl-5-[3-(4-chlorophenyl)ureido]pyrazol-1-yl}naphthalen-1-yl)acetic acid ethyl ester]: the pIC50 was 7.08.
`CC(C)(C)c1cc(NC(=O)Nc2ccc(F)cc2F)n(-c2ccc3[nH]c(=O)ccc3c2)n1` [Example 332, 1-(3-t-butyl-1-(2-oxo-1,2-dihydroquinolin-6-yl)-1H-pyrazol-5-yl)-3-(2,4-difluorophenyl)urea] gave a pIC50 of 8.36.
The same measure, in the same setting: for `CNCCc1cccc(-n2nc(C(C)(C)C)cc2NC(=O)Nc2cccc(Cl)c2Cl)c1` [Example 258, 1-(3-t-butyl-1-(3-(2-(methylamino)ethyl)phenyl)-1H-pyrazol-5-yl)-3-(2,3-dichlorophenyl)urea] the value was 8.47; for `CC(C)(C)c1cc(NC(=O)Nc2cccc(Cl)c2Cl)n(-c2ccc(C(=N)NO)cc2)n1` [Example 260, 4-{3-t-butyl-5-[3-(2,3-dichlorophenyl)ureido]pyrazol-1-yl}-N-hydroxybenzamidine], 8.40.
The compound `COc1cccc(-n2nc(C(C)(C)C)cc2NC(=O)Nc2ccc(F)cc2)c1` [Example 230, 1-(3-t-butyl-1-(3-methoxyphenyl)-1H-pyrazol-5-yl)-3-(4-fluorophenyl)urea] showed a pIC50 of 7.28.
In turn, `CC(C)(C)c1cc(NC(=O)NC2CCCCC2)n(-c2cc(CO)c3ccccc3c2)n1` [Example 292, 1-(3-t-butyl-1-(4-(hydroxymethyl)naphthalen-2-yl)-1H-pyrazol-5-yl)-3-cyclohexylurea] had a pIC50 of 7.66.
With `CC(C)(C)c1cc(NC(=O)Nc2cccc(F)c2F)n(-c2cc(CC(N)=O)c3ccccc3c2)n1` [Example 90, 1-(1-(4-(2-amino-2-oxoethyl)naphthalen-2-yl)-3-t-butyl-1H-pyrazol-5-yl)-3-(2,3-difluorophenyl)urea], the pIC50 was 8.41.
On to `CCOC(=O)Cc1cccc(-n2nc(C(C)(C)C)cc2NC(=O)Nc2ccc3c(c2)OCO3)c1` [Example 247, ethyl 2-(3-{5-[3-(benzo[d][1,3]dioxol-5-yl)ureido]-3-t-butyl-1H-pyrazol-1-yl}phenyl)-acetate], for which the pIC50 is 7.15.
For `CC(C)(C)c1cc(NC(=O)Nc2ccc(Cl)cc2)n(-c2ccc3c(c2)C(=O)NCC3)n1` [Example 309, 1-[3-t-butyl-1-(1-oxo-1,2,3,4-tetrahydroiso-quinolin-7-yl)-1H-pyrazol-5-yl]-3-(4-chlorophenyl)urea], the pIC50 is 6.60.
`CC(C)(C)c1cc(NC(=O)Nc2cccc(F)c2)n(-c2ccc3c(c2)CCNCC3)n1` [Example 335, 1-(3-t-butyl-1-(2,3,4,5-tetrahydro-1H-benzo[d]azepin-7-yl)-1 H-pyrazol-5-yl)-3-(3-fluorophenyl)urea] gave a pIC50 of 6.98.
In the case of `CC(C)(C)c1cc(NC(=O)Nc2ccc(F)cc2)n(-c2cc(CO)c3ccccc3c2)n1` [Example 293], the pIC50 was 8.15.
The compound `CC(C)(C)c1cc(NC(=O)Nc2cccc(Oc3ccccc3)c2)n(-c2cccc(CC(N)=O)c2)n1` [Example 433, 1-(1-(3-(2-amino-2-oxoethyl)phenyl)-3-t-butyl-1H-pyrazol-5-yl)-3-(3-phenoxyphenyl)urea] gave a pIC50 of 8.29.
`CC(C)(C)c1cc(NC(=O)Nc2ccc3c(c2)OCO3)n(-c2cccc(CC(N)=O)c2)n1` [Example 395, 1-{1-[3-(2-amino-2-oxoethyl)phenyl]-3-t-butyl-1H-pyrazol-5-yl}-3-(benzo[d][1,3]dioxol-5-yl)urea] showed a pIC50 of 7.30.
On to `CC(C)NC(=O)Cc1cccc(-n2nc(C(C)(C)C)cc2NC(=O)Nc2cccc(Cl)c2Cl)c1` [Example 441, 1-(3-t-butyl-1-(3-(2-(isopropylamino)-2-oxoethyl)phenyl)-1H-pyrazol-5-yl)-3-(2,3-dichlorophenyl)urea], for which the pIC50 is 8.19.
On the same count and under the same terms, for `CC(C)(C)c1cc(NC(=O)Nc2cccc(Cl)c2Cl)n(-c2cc(C(=O)O)c3ccccc3c2)n1` [Example 287, 3-{3-t-butyl-5-(3-(2,3-dichlorophenyl)ureido]-1H-pyrazol-1-yl}-1-naphthoic acid] the value was 7.39.
As to `CCOC(=O)c1ccc(-n2nc(C(C)(C)C)cc2NC(=O)Nc2cccc(Cl)c2Cl)cc1` [Example 243, ethyl 4-{3-t-butyl-5-[3-(2,3-dichlorophenyl)ureido]-1H-pyrazol-1-yl}benzoate], the pIC50 was 7.39.
On the same count and under the same terms, next, `CC(C)(C)c1cc(NC(=O)Nc2ccccc2F)n(-c2ccc3c(c2)C(=O)NCC3)n1` [Example 312, 1-(3-t-butyl-1-(1-oxo-1,2,3,4-tetrahydroiso-quinolin-7-yl)-1H-pyrazol-5-yl)-3-(2-fluorophenyl)urea]: 7.46.
The compound `CC(C)(C)c1cc(NC(=O)Nc2ccccc2F)n(-c2cccc(CC(N)=O)c2)n1` [Example 393, 1-{1-[3-(2-amino-2-oxoethyl)phenyl]-3-t-butyl-1H-pyrazol-5-yl}-3-(2-fluorophenyl)urea] showed a pIC50 of 7.70.
Compound `CC(C)(C)c1cc(NC(=O)Nc2ccc(Cl)cc2)n(-c2cc(CC(=O)O)c3ccccc3c2)n1` [Example 300, (3-{3-t-butyl-5-[3-(4-chlorophenyl)ureido]pyrazol-1-yl}naphthalen-1-yl)acetic acid] had a pIC50 of 8.04.
`CC(C)(C)c1cc(NC(=O)Nc2ccc(F)cc2)n(-c2ccc3c(c2)CCC(=O)N3)n1` [Example 317] showed a pIC50 of 7.44.
`CC(C)(C)c1cc(NC(=O)Nc2ccc(F)cc2F)n(-c2ccc3c(c2)CCC(=O)N3)n1` [Example 321, 1-(3-t-butyl-1-(2-oxo-1,2,3,4-tetrahydro-quinolin-6-yl)-1H-pyrazol-5-yl)-3-(2,4-difluorophenyl)urea] had a pIC50 of 8.14.
Still for that read-out and setting: for `CCOC(=O)c1cc(-n2nc(C(C)(C)C)cc2NC(=O)NC2CCCCC2)cc2ccccc12` [Example 288, ethyl 3-(3-t-butyl-5-(3-cyclohexylureido)-1H-pyrazol-1-yl)-1-naphthoate] the value was 7.25.
On the same count and under the same terms, next, `CC(C)(C)c1cc(NC(=O)Nc2cc(F)c(F)c(F)c2)n(-c2cc(CC(N)=O)c3ccccc3c2)n1` [Example 92, 1-(1-(4-(2-amino-2-oxoethyl)naphthalen-2-yl)-3-t-butyl-1H-pyrazol-5-yl)-3-(3,4,5-trifluorophenyl)urea]: 8.09; `CC(C)(C)c1cc(NC(=O)Nc2cccc(F)c2F)n(-c2cc(CO)c3ccccc3c2)n1` [Example 294]: 8.48.
Still for that read-out and setting: next, `CC(C)(C)c1cc(NC(=O)Nc2cc(F)cc(F)c2F)n(-c2ccc3[nH]c(=O)ccc3c2)n1` [Example 331]: 8.47; `C[C@H](NC(=O)Nc1cc(C(C)(C)C)nn1-c1cccc(C#N)c1)c1ccccc1` [Example 211, 1-[3-t-butyl-1-(3-cyanophenyl)-1H-pyrazol-5-yl]-3-((S)-1-phenylethyl)urea]: 6.11; `CCOC(=O)c1cc(-n2nc(C(C)(C)C)cc2NC(=O)Nc2ccc(F)cc2F)cc2ccccc12` [Example 289, ethyl 3-(3-t-butyl-5-(3-(2,4-difluorophenyl)ureido)-1H-pyrazol-1-yl)-1-naphthoate]: 7.55.
`COC(=O)Cc1cc(-n2nc(C(C)(C)C)cc2NC(=O)Nc2ccccc2)cc2ccccc12` [Example 299, {3-[3-t-butyl-5-(3-phenylureido)pyrazol-1-yl]naphthalen-1-yl}acetic acid methyl ester]: the pIC50 is 7.70.
On to `CC(C)(C)c1cc(NC(=O)Nc2ccccc2Cl)n(-c2ccc3c(c2)C(=O)NCC3)n1` [Example 313, 1-(3-t-butyl-1-(1-oxo-1,2,3,4-tetrahydroiso-quinolin-7-yl)-1H-pyrazol-5-yl)-3-(2-chlorophenyl)urea], for which the pIC50 was 7.34.
With `CC(C)(C)c1cc(NC(=O)Nc2cc(F)cc(F)c2)n(-c2ccc3c(c2)CCC(=O)N3)n1` [Example 326, 1-(3-t-butyl-1-(2-oxo-1,2,3,4-tetrahydro-quinolin-6-yl)-1H-pyrazol-5-yl)-3-(3,5-difluorophenyl)urea], the pIC50 is 7.77.
`CC(C)(C)c1cc(NC(=O)Nc2cccc(Oc3ccccc3)c2)n(-c2ccc3c(c2)CCC(=O)N3)n1` [Example 325, 1-(3-t-butyl-1-(2-oxo-1,2,3,4-tetrahydro-quinolin-6-yl)-1H-pyrazol-5-yl)-3-(3-phenoxyphenyl)urea] showed a pIC50 of 8.35.

The assay is the same for the next values; noted with them: Method B1; read-out: B-Raf Data.
On to `CC(C)(C)c1cc(NC(=O)Nc2cccc(F)c2F)n(-c2cccc(CC(N)=O)c2)n1` [Example 394, 1-{1-[3-(2-amino-2-oxoethyl)phenyl]-3-t-butyl-1H-pyrazol-5-yl}-3-(2,3-difluorophenyl)urea], for which the pIC50 was 8.06.
